The source of these data is patent US20260206753A1, “HERBICIDAL DERIVATIVES” (SYNGENTA CROP PROTECTION AG, priority 2022, published 2026).

What all share (assay type): in vivo
For experiment [1], the system named is Zea mays (ZEAMX). Put plainly: Pre-emergence herbicide test, glasshouse pots. To be noted: 1000 g/ha, evaluated after 13 days.
The test system of experiment [2] is Echinochloa crus-galli (ECHCG). In words: Pre-emergence herbicide test, glasshouse pots. To be noted: 1000 g/ha, evaluated after 13 days.
In experiment [3] the test system is Setaria faberi (SETFA). In words: Pre-emergence herbicide test, glasshouse pots. The following applies: 1000 g/ha, evaluated after 13 days.
The subject of experiment [4] is Amaranthus retoflexus (AMARE). In words: Pre-emergence herbicide test, glasshouse pots. To be noted: 1000 g/ha, evaluated after 13 days.
Experiment [5] deals with Ipomoea hederacea (IPOHE). In words: Pre-emergence herbicide test, glasshouse pots. The following applies: 1000 g/ha, evaluated after 13 days.
Experiment [6] concerns Zea mays (ZEAMX). Put plainly: Post-emergence herbicide test, glasshouse pots. To be noted: sprayed after 8 days cultivation, 1000 g/ha, evaluated after 13 days. The method, then: (§1) Seeds of a variety of test species are sown in standard soil in pots (Setaria faberi (SETFA), Echinochloa crus-galli (ECHCG), Ipomoea hederacea (IPOHE), Amaranthus palmeri (AMAPA), Zea mays (ZEAMX), Amaranthus retoflexus (AMARE), Solanum nigrum (SOLNI), Lolium perenne (LOLPE), Abutilon theophrasti (ABUTH)). After 8 days cultivation under controlled conditions in a glasshouse (at 24° C./16° C., day/night; 14 hours light; 65% humidity), the plants are sprayed with an aqueous spray solution derived from the formulation of the technical active ingredient in acetone/water (50:50) solution containing 0.5% Tween 20 (polyoxyethelyene sorbitan monolaurate, CAS RN 9005-64-5). Compounds are applied at 1000 g/ha unless otherwise stated. The test plants are then grown in a glasshouse under controlled conditions in a glasshouse (at 24° C./16° C., day/night; 14 hours light; 65% humidity) and watered twice daily. After 13 days the test is evaluated for the percentage damage caused to the plant. The biological activities are shown in the following table on a five-point scale (5=81-100%; 4=61-80%; 3=41-60%; 2=21-40%; 1=0-20%).

Experiment [7] concerns Echinochloa crus-galli (ECHCG). Put plainly: Post-emergence herbicide test, glasshouse pots. To be noted: sprayed after 8 days cultivation, 1000 g/ha, evaluated after 13 days. The procedure: as §1
In experiment [8] the test system is Ipomoea hederacea (IPOHE). In words: Post-emergence herbicide test, glasshouse pots. To be noted: sprayed after 8 days cultivation, 1000 g/ha, evaluated after 13 days. The procedure:
as §1

Experiment [9] concerns Setaria faberi (SETFA). In words: Post-emergence herbicide test, glasshouse pots. To be noted: sprayed after 8 days cultivation, 1000 g/ha, evaluated after 13 days. The method, then: as §1
Experiment [10] has as its system Amaranthus palmeri (AMAPA). In words: Post-emergence herbicide test, glasshouse pots. To be noted: sprayed after 8 days cultivation, 1000 g/ha, evaluated after 13 days. The method, then:
as §1

Experiment [11] concerns Amaranthus retoflexus (AMARE). Put plainly: Post-emergence herbicide test, glasshouse pots. To be noted: sprayed after 8 days cultivation, 1000 g/ha, evaluated after 13 days. The method, then:
as §1

Experiment [12] concerns Amaranthus palmeri (AMAPA). Put plainly: Pre-emergence herbicide test, glasshouse pots. To be noted: 1000 g/ha, evaluated after 13 days.

On to `CCn1cc(-c2cc(OC(F)(F)F)ccc2F)c(=O)c(C(=O)O)c1-c1ccc(Cl)c(Cl)c1` [Compound 5, 2-(3,4-dichlorophenyl)-1-ethyl-5-[2-fluoro-5-(trifluoromethoxy)phenyl]-4-oxo-pyridine-3-carboxylic acid], for which the “ZEAMX, percentage damage caused to the plant (five-point scale)” value (“ZEAMX, percentage damage caused” for short) in the experiment on Zea mays (ZEAMX) [1] and in the experiment with Zea mays (ZEAMX) [6] was 4 (4=61-80%) each time. Further, the “ECHCG, percentage damage caused to the plant (five-point scale)” value (“ECHCG, percentage damage caused” below) is reported as 5 (5=81-100%) in experiment [2] and 4 (4=61-80%) in experiment [7]. Moreover, the “SEFTA, percentage damage caused to the plant (five-point scale)” value (shortened to “SEFTA, percentage damage caused”) is listed as 5 (5=81-100%) in the experiment with Setaria faberi (SETFA) [3] and 4 (4=61-80%) in the experiment with Setaria faberi (SETFA) [9]. The entries for the “AMARE, percentage damage caused to the plant (five-point scale)” value (“AMARE, percentage damage caused” for short) in experiment [4] and in experiment [11] were 3 (3=41-60%) and 4 (4=61-80%), respectively. Also, the “IPOHE, percentage damage caused to the plant (five-point scale)” value (“IPOHE, percentage damage caused” below) in experiment [5] and in experiment [8] was 4 (4=61-80%) in each case. In addition, the “AMAPA, percentage damage caused to the plant (five-point scale)” value (shortened to “AMAPA, percentage damage caused”) in experiment [10] and in experiment [12] was 4 (4=61-80%) in each case.

In the case of `CCn1cc(-c2cc(C(=O)OC(C)C)ccc2F)c(=O)c(C(=O)O)c1-c1ccc(Cl)c(Cl)c1` [Compound 8, 2-(3,4-dichlorophenyl)-1-ethyl-5-(2-fluoro-5-isopropoxycarbonyl-phenyl)-4-oxo-pyridine-3-carboxylic acid], the “ZEAMX, percentage damage caused” value with Zea mays (ZEAMX) [1] was 1 (1=0-20%); in the experiment with Zea mays (ZEAMX) [6] it was 3 (3=41-60%). Further, the “ECHCG, percentage damage caused” value in experiment [2] is 5 (5=81-100%); in experiment [7], 3 (3=41-60%). Also, the “SEFTA, percentage damage caused” value in the experiment on Setaria faberi (SETFA) [3] is 5 (5=81-100%); in the experiment on Setaria faberi (SETFA) [9], 4 (4=61-80%). Moreover, the “AMARE, percentage damage caused” value in experiment [4] and in experiment [11] was 3 (3=41-60%) in each case. In addition, the entries for the “IPOHE, percentage damage caused” value in experiment [5] and in experiment [8] were 1 (1=0-20%) and 3 (3=41-60%), respectively. In addition, the entries for the “AMAPA, percentage damage caused” value in experiment [10] and in [12] were 3 (3=41-60%) and 5 (5=81-100%), respectively.

Take `CCn1cc(-c2cccc(OC(F)(F)F)c2F)c(=O)c(C(=O)O)c1-c1ccc(Cl)c(Cl)c1` [Compound 11, 2-(3,4-dichlorophenyl)-1-ethyl-5-[2-fluoro-3-(trifluoromethoxy)phenyl]-4-oxo-pyridine-3-carboxylic acid]: the “ZEAMX, percentage damage caused” value in the experiment on Zea mays (ZEAMX) [1] is on record as 0; in the experiment on Zea mays (ZEAMX) [6] it was 1 (1=0-20%). Moreover, the “ECHCG, percentage damage caused” value in [2] is on record as 3 (3=41-60%); in [7], 4 (4=61-80%). In addition, the entries for the “SEFTA, percentage damage caused” value in the experiment on Setaria faberi (SETFA) [3] and with Setaria faberi (SETFA) [9] were 3 (3=41-60%) and 2 (2=21-40%), respectively. Further, the “AMARE, percentage damage caused” value in experiment [4] is reported as 2 (2=21-40%); in experiment [11] it was 4 (4=61-80%). Besides, the “IPOHE, percentage damage caused” value in experiment [5] and in [8] was 3 (3=41-60%) in each case. Besides, the “AMAPA, percentage damage caused” value in experiment [10] was 4 (4=61-80%); in experiment [12] it was 2 (2=21-40%).

With `CCn1cc(-c2cc(C(=O)OC(C)C)c(Cl)cc2F)c(=O)c(C(=O)O)c1-c1ccc(Cl)c(Cl)c1` [Compound 6, 5-(4-chloro-2-fluoro-5-isopropoxycarbonyl-phenyl)-2-(3,4-dichlorophenyl)-1-ethyl-4-oxo-pyridine-3-carboxylic acid], the “ZEAMX, percentage damage caused” value in the experiment with Zea mays (ZEAMX) [1] is on record as 5 (5=81-100%); in the experiment on Zea mays (ZEAMX) [6] it was 4 (4=61-80%). The “ECHCG, percentage damage caused” value in [2] and in experiment [7] was 5 (5=81-100%) in each case. Further, the “SEFTA, percentage damage caused” value with Setaria faberi (SETFA) [3] and with Setaria faberi (SETFA) [9] was 5 (5=81-100%) in each case. The “AMARE, percentage damage caused” value in experiment [4] and in experiment [11] was 5 (5=81-100%) each time. Besides, the results for the “IPOHE, percentage damage caused” value in experiment [5] and in experiment [8] were 4 (4=61-80%) and 3 (3=41-60%), respectively. Besides, the “AMAPA, percentage damage caused” value in experiment [10] and in [12] was 5 (5=81-100%) throughout.

Consider `CCn1cc(-c2ccc(Cl)cc2)c(=O)c(C(=O)O)c1-c1ccc(Cl)c(Cl)c1` [Compound 1, 5-(4-chlorophenyl)-2-(3,4-dichlorophenyl)-1-ethyl-4-oxo-pyridine-3-carboxylic acid], for which the “ZEAMX, percentage damage caused” value was 1 (1=0-20%) in the experiment with Zea mays (ZEAMX) [1] and 3 (3=41-60%) with Zea mays (ZEAMX) [6]. The “ECHCG, percentage damage caused” value is on record as 5 (5=81-100%) in [2] and 4 (4=61-80%) in [7]. In addition, the results for the “SEFTA, percentage damage caused” value in the experiment on Setaria faberi (SETFA) [3] and with Setaria faberi (SETFA) [9] were 5 (5=81-100%) and 4 (4=61-80%), respectively. Moreover, the “AMARE, percentage damage caused” value in experiment [4] was 0; in [11], 3 (3=41-60%). The “IPOHE, percentage damage caused” value in [5] and in [8] was 3 (3=41-60%) throughout. Besides, the “AMAPA, percentage damage caused” value in experiment [10] is recorded as 3 (3=41-60%); in experiment [12] it was 1 (1=0-20%).

Turning to `CCn1cc(-c2cc(OC(F)(F)F)ccc2Cl)c(=O)c(C(=O)O)c1-c1ccc(Cl)c(Cl)c1` [Compound 7, 5-[2-chloro-5-(trifluoromethoxy)phenyl]-2-(3,4-dichlorophenyl)-1-ethyl-4-oxo-pyridine-3-carboxylic acid], the “ZEAMX, percentage damage caused” value with Zea mays (ZEAMX) [1] and with Zea mays (ZEAMX) [6] was 3 (3=41-60%) in each case. Also, the “ECHCG, percentage damage caused” value in experiment [2] and in [7] was 4 (4=61-80%) throughout. Besides, the “SEFTA, percentage damage caused” value in the experiment on Setaria faberi (SETFA) [3] and with Setaria faberi (SETFA) [9] was 5 (5=81-100%) each time. Moreover, the “AMARE, percentage damage caused” value in experiment [4] and in [11] was 4 (4=61-80%) each time. For the same compound, the “IPOHE, percentage damage caused” value was 1 (1=0-20%) in experiment [5] and 3 (3=41-60%) in experiment [8]. The figures for the “AMAPA, percentage damage caused” value in [10] and in [12] were 4 (4=61-80%) and 3 (3=41-60%), respectively.

Turning to `CCn1cc(-c2ccc(Cl)cc2F)c(=O)c(C(=O)O)c1-c1ccc(Cl)c(Cl)c1` [Compound 2, 5-(4-chloro-2-fluoro-phenyl)-2-(3,4-dichlorophenyl)-1-ethyl-4-oxo-pyridine-3-carboxylic acid], the figures for the “ZEAMX, percentage damage caused” value in the experiment with Zea mays (ZEAMX) [1] and with Zea mays (ZEAMX) [6] were 3 (3=41-60%) and 4 (4=61-80%), respectively. The “ECHCG, percentage damage caused” value in experiment [2] was 5 (5=81-100%); in experiment [7], 4 (4=61-80%). The results for the “SEFTA, percentage damage caused” value in the experiment with Setaria faberi (SETFA) [3] and with Setaria faberi (SETFA) [9] were 5 (5=81-100%) and 4 (4=61-80%), respectively. In addition, the “AMARE, percentage damage caused” value in experiment [4] was 1 (1=0-20%); in [11], 4 (4=61-80%). The “IPOHE, percentage damage caused” value in experiment [5] and in experiment [8] was 3 (3=41-60%) throughout. In addition, the “AMAPA, percentage damage caused” value in [10] and in experiment [12] was 5 (5=81-100%) each time.
